Results published in paper PMC9811213, “Glutamine deamidation does not increase the immunogenicity of C-peptide in people with type 1 diabetes” (Journal of Translational Autoimmunity, 2022).

Assays:
[1] = system: CD4+ T cells in PBMC from people with recent onset T1D; test: CFSE-based proliferation assay, PBMC of people with T1D; format: cell-based, human; conditions: peptide 10 μM; for Cell division index (CDI): CFSE-labelled PBMC
Protocol: (§1) Blood was obtained by venepuncture. Peripheral blood mononuclear cells (PBMC) were isolated over Ficoll-paque (GE Healthcare) and washed twice in phosphate buffered saline (PBS) as described. The CFSE (5,6-carboxyfluorescein diacetate succinimidyl ester) proliferation assays were performed as described previously. CFSE-labelled PBMC were cultured with either: no antigen, full-length C-peptide (^PI33-63), or ^PI33-63 Q38E (referred to as Q6E), ^PI33-63 Q41E (referred to as Q9E), ^PI33-63 Q54E, (referred to as Q22E) ^PI33-63 Q63E (referred to as Q31E), or ^PI33-63 with all glutamines substituted for glutamic acid, (referred to as QallE). See Supplementary Table 5 for a detailed description of the peptides. Each peptide was used at a final concentration of 10 μM. Positive controls were tetanus toxoid (TT 10LfU/ml, Statens Serum Institut) and/or anti-CD3 (OKT3 10 ng/ml). The results are presented as a cell division index (CDI), the ratio of the number of CD4^+ T cells that have proliferated in the presence of antigen to the number of CD4^+ T cells that have proliferated in the absence of antigen.
(§2) Our analysis of CD4^+ Jurkat lines expressing TCRs derived from primary CD4^+ T cells used TCRs derived from CD4^+ T cells that were selected for their specificity for WT C-peptide. […] This may be due to Q to E substitutions being poorly tolerated by the TCRs that were selected based on their recognition of WT C-peptide. To address this, we measured polyclonal CD4^+ T-cell responses in PBMC from people with recent onset type 1 diabetes. (see Supplementary Tables 5 and 6 for details of each subject). […] Next, in a separate cohort we investigated CD4^+ T-cell responses to the five C-peptide variants with individual Q to E substitutions in PBMC of people with recent onset type 1 diabetes (Fig. 3B). We found, as expected, that a majority of PBMC samples responded to WT C-peptide, but responses to Q to E substituted C-peptide variants were not stronger, in fact in most cases they were weaker, than responses to WT C-peptide. (See Supplementary Tables 7–9 for results from individual subjects). Finally, we asked if people without T1D, but who carried the T1D-associated HLA alleles, HLA-DQ2, or HLA-DQ8 had stronger responses to Q to E substituted C-peptide variants (Fig. 3C). Here few subjects had response to WT C-peptide and only a minority had greater responses to Q to E substituted variants of C-peptide, compared to WT C-peptide.
(§3) Fig. 3 PBMC responses to WT and deamidated C-peptide variants. (A) Proliferation in responses, measured as a cell division index (CDI) to WT or QallE C-peptide were compared in 8 PBMC from 8 people with recent onset T1D. Responses from the same individual are linked. […] (B) PBMC proliferation responses to WT and C-peptide variants with individual Q to E substitution and QallE from people with recent onset T1D (B) and HLA matched control subjects who don't have T1D (C). Only difference which reached statistical significance are marked (* = P < 0.05). For responses in subjects without T1D, none of the differences between groups reached statistical significance, p > 0.05, by Wilcoxon matched pairs signed rank test of Log 10 transformed CDI data. Each point is a different individual, bars show the mean and the standard deviation for each group.

[2] = system: CD4+ T cells in PBMC from subjects without T1D; test: CFSE-based proliferation assay, PBMC of subjects without T1D; format: cell-based, human; conditions: CFSE-labelled PBMC, peptide 10 μM, mean CDI
Protocol: as §1, §2, §3

EAEDLEVGEVELGGGPGAGSLEPLALEGSLE [QallE, C-peptide with all four glutamines substituted for glutamic acid]
CD4+ T-cell proliferation response compared with WT C-peptide ([1]; PBMC from 8 people with recent onset T1D, Fig. 3A, difference not statistically significant): slightly weaker response | Cell division index (CDI) ([1]; T1D donor 1, mean CDI = proliferated CD4+ T cells with antigen / without antigen): 3.5 | Cell division index (CDI) ([1]; T1D donor 2, mean CDI): 8.6 | Cell division index (CDI) ([1]; T1D donor 3, mean CDI): 2.1 | Cell division index (CDI) ([1]; T1D donor 4, mean CDI): 2.9 | Cell division index (CDI) ([1]; T1D donor 5, mean CDI): 4.8 | Cell division index (CDI) ([1]; T1D donor 6, mean CDI): 1.5 | Cell division index (CDI) ([1]; T1D donor 7, mean CDI): 2.5 | Cell division index (CDI) ([1]; T1D donor 8, mean CDI): 15.9 | Cell division index (CDI) ([1]; T1D donor 9, mean CDI): 0.3 | Cell division index (CDI) ([1]; T1D donor 10, mean CDI): 1.0 | Cell division index (CDI) ([1]; T1D donor 11, mean CDI): 1.0 | Cell division index (CDI) ([1]; T1D donor 12, mean CDI): 1.4 | Cell division index (CDI) ([1]; T1D donor 13, mean CDI): 24.7 | Cell division index (CDI) ([1]; T1D donor 14, mean CDI): 15.1 | Cell division index (CDI) ([1]; T1D donor 15, mean CDI): 21.3 | Cell division index (CDI) ([1]; T1D donor 16, mean CDI): 0.7 | Cell division index (CDI) ([1]; T1D donor 17, mean CDI): 2.0 | Cell division index (CDI) ([1]; T1D donor 18, mean CDI): 1.5 | Cell division index (CDI) ([2]; donor 1 without T1D): 15.8 | Cell division index (CDI) ([2]; donor 2 without T1D): 1.2 | Cell division index (CDI) ([2]; donor 3 without T1D): 0.9 | Cell division index (CDI) ([2]; donor 4 without T1D): 1.3 | Cell division index (CDI) ([2]; donor 5 without T1D): 1.7 | Cell division index (CDI) ([2]; donor 6 without T1D): 7.8

EAEDLQVGEVELGGGPGAGSLQPLALEGSLQ [Q9E, C-peptide variant with glutamine 9 substituted for glutamic acid]
Cell division index (CDI) ([1]; T1D donor 9, mean CDI): 3.9 | Cell division index (CDI) ([1]; T1D donor 10, mean CDI): 1.3 | Cell division index (CDI) ([1]; T1D donor 11, mean CDI): 0.8 | Cell division index (CDI) ([1]; T1D donor 12, mean CDI): 8.0 | Cell division index (CDI) ([1]; T1D donor 13, mean CDI): 38.4 | Cell division index (CDI) ([1]; T1D donor 14, mean CDI): 11.1 | Cell division index (CDI) ([1]; T1D donor 15, mean CDI): 5.1 | Cell division index (CDI) ([1]; T1D donor 16, mean CDI): 3.7 | Cell division index (CDI) ([1]; T1D donor 17, mean CDI): 11.3 | Cell division index (CDI) ([1]; T1D donor 18, mean CDI): 3.4 | Cell division index (CDI) ([2]; donor 1 without T1D): 1.0 | Cell division index (CDI) ([2]; donor 2 without T1D): 1.4 | Cell division index (CDI) ([2]; donor 3 without T1D): 1.2 | Cell division index (CDI) ([2]; donor 4 without T1D): 0.8 | Cell division index (CDI) ([2]; donor 5 without T1D): 6.1 | Cell division index (CDI) ([2]; donor 6 without T1D): 3.4

EAEDLQVGQVELGGGPGAGSLQPLALEGSLE [Q31E, C-peptide variant with glutamine 31 substituted for glutamic acid]
Cell division index (CDI) ([1]; T1D donor 9, mean CDI): 0.3 | Cell division index (CDI) ([1]; T1D donor 10, mean CDI): 2.0 | Cell division index (CDI) ([1]; T1D donor 11, mean CDI): 0.9 | Cell division index (CDI) ([1]; T1D donor 12, mean CDI): 3.7 | Cell division index (CDI) ([1]; T1D donor 13, mean CDI): 11.8 | Cell division index (CDI) ([1]; T1D donor 14, mean CDI): 3.6 | Cell division index (CDI) ([1]; T1D donor 15, mean CDI): 6.4 | Cell division index (CDI) ([1]; T1D donor 16, mean CDI): 1.5 | Cell division index (CDI) ([1]; T1D donor 17, mean CDI): 7.6 | Cell division index (CDI) ([1]; T1D donor 18, mean CDI): 1.0 | Cell division index (CDI) ([2]; donor 1 without T1D): 1.3 | Cell division index (CDI) ([2]; donor 2 without T1D): 1.7 | Cell division index (CDI) ([2]; donor 3 without T1D): 3.6 | Cell division index (CDI) ([2]; donor 4 without T1D): 0.8 | Cell division index (CDI) ([2]; donor 5 without T1D): 22.3 | Cell division index (CDI) ([2]; donor 6 without T1D): 1.9
